Data on one molecule can be found in patent publication US20210317111A1, “NOVEL MEDICAMENT FOR TREATING INFLAMMATORY BOWEL DISEASE” (OTSUKA PHARMACEUTICAL CO., LTD., priority 2018, published 2021).

Experiment [1] deals with naive T cell transfer model of colitis. As to the kind of experiment: naive T cell transfer model of colitis (Crohn's disease mouse model), histological scoring of large intestine. It counts as in vivo. From the text: From spleen of Balb/c mouse, naive T cell (CD4+CD62L+CD44−) was isolated with antibody-coated magnetic beads. The isolated naive T cell (5×10^5 cells/mouse) was transplanted in abdominal cavity of SCID mouse which is a severe combined immunodeficiency animal. The present compound was orally administered to the mouse once a day at each dose defined in Table 1 below, from the first day of the transplantation for Test 1, or from the 2nd week after the transplantation for Test 2, until 5 weeks after the transplantation. [table] […] The anti-TNF-α antibody was intraperitoneally administered to the mouse twice a week at each dose defined in Table 2 below, from the 2nd week after the transplantation, for 2 weeks. [table] At 5th week for Tests 1 and 2, and at 4th week for Test 3, the large intestine was removed, and the length and weight of the large intestine were measured. In addition, the large intestine was fixed with formalin to carry out pathological analysis. From the removed large intestine, the anus part, the center part, and the cecal part were cut out each in about 0.5 cm, and each part was fixed with formalin. The paraffin block thereof was prepared, sliced, and subjected to H&E staining. The H&E stained slice was examined with a microscope to score it histologically. The histological scoring was carried out by scoring the inflammatory cell infiltrate, the Goblet cell loss, and the hyperplasia of mucosal epithelium, based on the standard (0-4) defined in Table 3 below. [table]

Experiment [2] has as its system TNF-α production. As to the kind of experiment: inhibition of LPS-induced TNF-α production in human peripheral blood (ELISA). Particulars: 24 hours. It is filed as cell-based. On the procedure:
The LPS solution which was adjusted to 2 μg/mL with RPMI 1640 medium was added to 48-well plate in the amount of 250 μL/well. The each diluted solution of each test compound and the diluted solution of the solvent control were added to 3 wells for each concentration in the amount of 50 μL/well, 4-fold diluted solution of human peripheral blood was added to each well (200 μL/well), and the wells were incubated at 37° C. in 5% CO2 for 24 hours. As LPS (−) control, RPMI 1640 medium without added LPS was prepared in the same manner. The final concentrations of each test sample were adjusted to 0, 1, 3, 10, 30, and 100 μM, and the final concentration of prednisolone was adjusted to 0.3 μM. 24 hours later from the incubation, each supernatant was collected and stored at −80° C. until the measurement of the TNF-α concentration.
The TNF-α concentration was measured by ELISA with Human TNF-alpha Quantikine ELISA Kit (R & D Systems). Each sample was unfrozen at room temperature, and diluted with Calibrator Diluent RD6-35 (1×) of the kit by 10-fold. The 10-fold diluted supernatant and the TNF-α standard solution were added on TNF-α microplate, and reacted according to the operating manual of the kit. After the coloring, the absorbance at wave length of 450 nm was measured with a microplate reader (Multiskan FC; Thermo Fisher […]), and the calibration curve was prepared with an analysis software (Skanit Software 3.1.0.4 RE for Multiskan FC (ja)) to read the TNF-α concentration of each sample. Calibration curve used a 4-parameter logistic curve.
The inhibition rates were presented as the mean±standard deviation using Microsoft Excel 2010. For each blood donor, the TNF-α production rate under each compound concentration was calculated with the TNF-α concentration in the supernatant of the solvent group as 100%.
The results are averages of the measurements obtained from the human peripheral blood of three volunteers.
Background: An ELISA detects its analyte on a solid surface through an enzyme-linked reagent.

The subject of experiment [3] is activated T cell (CD25+ cell). As to the kind of experiment: T-cell activation (CD25+ cells) in anti-CD3/CD28/CD2 bead-stimulated PBMC. It is filed as cell-based, human. Particulars: both CD4-positive and CD8-positive T-cell. On the procedure: (§1) Peripheral blood (30 mL) derived from a healthy adult was layered on a lymphocyte tube Leucosep™ containing Lymphoprep (15 mL), and the tube was centrifuged at room temperature at 2000 rpm for 20 minutes. After the centrifugation, the upper 5 mL of the plasma was removed from the peripheral blood mononuclear cell (PBMC) layer with an aspirator, and the left solution containing the PBMC layer was collected into a new 50 mL tube. To the collected solution was added an equal amount of Hanks' balanced salt solution (HBSS) to dilute the cell suspension. The diluted solution was centrifuged at 4° C. at 1800 rpm for 5 minutes. After the centrifugation, the supernatant was discarded, the rest was suspended in 10 mL of AIM-V. The suspension was centrifuged at 4° C. at 1500 rpm for 5 minutes, and the supernatant was discarded. The same washing process was repeated one more time. After the centrifugation, the supernatant was discarded, and the obtained cell was suspended in 5% FBS-containing AIM-V to be used in the following tests.
(§2) To 96-well round-bottom plate were added 100 μL of medium containing the compound, 100 μL (0.5×10^5 beads) of anti-CD3/CD28/CD2-loaded bead suspension (Miltenyi), and 100 μL (1×10^5 cells) of PBMC suspension. The mixture was incubated at 37° C. in 5% CO2 for 3 days.

Experiment [4] relates to IFN-γ. As to the kind of experiment: IFN-γ production by stimulated PBMC (ELISA). The conditions noted are these: stimulated human PBMC, 3 days, culture supernatant. It counts as cell-based. The protocol: as §1, §2
Experiment [5] has as its system Mycobacterium avium subspecies paratuberculosis (MAP). As to the kind of experiment: antibacterial activity (MIC), broth microdilution method. It counts as cell-based. Particulars: 336 h. On the procedure:
The chronic enterocolitis of ruminants which is caused by Mycobacterium avium subspecies paratuberculosis (MAP) is similar to Crohn's disease. […] Thus, the antibacterial activity of the present compound against MAP was evaluated. The used comparative drugs for the present compound were rifaximin (RFX), ciprofloxacin (CPFX), metronidazole (MTZ), clarithromycin (CAM), rifabutin (RBT), and clofazimine (CFZ).
The antibacterial activity (minimum inhibitory concentration (MIC)) was assayed by broth microdilution method which is based on Clinical and laboratory standards institute (CLSI).
The 5 strains of MAP were inoculated onto Middlebrook 7H9 agar containing 10% dubos oleic albumin complex (OADC), Tween 80 (0.5 g/L), mycobactin J (2 mg/L), and 1.5% agar, and pre-cultured at 37° C. under an aerobic condition for 14 days. After the pre-culture, the bacterial cell was scraped out from the agar, and prepared to the turbidity of 0.5 Mcfarland standard using Middlebrook 7H9 broth containing 10% dubos oleic albumin complex (OADC), Tween 80 (0.5 g/L), and mycobactin J (2 mg/L)]. The 10-fold diluted solution of the bacterial suspension was inoculated onto Middlebrook 7H9 broth 96-well plate which contains the present compound or any one of the comparative drugs, and incubated at 37° C. under an aerobic condition for 14 days.
After the incubation, the bacterial growth in each well of the 96-well plate was visually checked. The minimum concentration at which the bacterial growth was not observed, compared with the result of the well containing neither present compound nor comparative drug was determined as MIC of the present compound or each comparative drug against each test bacterium.
(In general: Broth dilution looks for growth in wells or tubes with falling amounts of substance.)

Values after ≈ are worked out from the molar mass of the structure shown.

On to `Cc1c(-c2cnc(N)c(C#N)c2)c(F)cc2c(=O)c(C(=O)O)cn(C3CC3)c12` [the present compound, 7-(6-amino-5-cyanopyridin-3-yl)-1-cyclopropyl-6-fluoro-1,4-dihydro-8-methyl-4-oxo-3-quinoline-carboxylic acid], for which the “histological score (Test 1, preventive effect)” value in experiment [1] (2.5 mg/kg or more, oral once a day from first day of transplantation until 5 weeks, vs solvent control) was “inhibited the increase of the histological score”. The “histological score (Test 2, therapeutic effect)” value in experiment [1] (5 mg/kg or more, oral once a day from 2nd week after transplantation until 5 weeks, vs solvent control) is reported as “significantly inhibited the increase of the histological score”. The “histological score (Test 3, comparative study)” value in experiment [1] (from 2nd week after transplantation for 2 weeks, present compound, CPFX, RFX oral once a day 10 mg/kg, antibody 25 mg/kg i.p. twice a week, 4th week) was “potent inhibitory effect at the same level as Normal group”. Moreover, the “inhibitory effect on TNF-α production at 100 μM” value in experiment [2] (100 μM, human peripheral blood) is given as “completely inhibited”. In addition, the “inhibitory activity for TNF-α production over concentration range” value in experiment [2] (1, 3, 10, 30, 100 μM, human peripheral blood) is “dose-dependent manner”. This molecule registered an IC50 in experiment [2] (human peripheral blood of three volunteers) of 6.25 µM. Besides, in experiment [3] (30 μM), the “inhibitory activity on T cell activation compared with prednisolone” value is recorded as “higher inhibitory activity than prednisolone”. Also, the “rate of activated T cell” value in experiment [3] (6 people's human PBMC, 3 days) was “decreased”. Besides, the “cytokine production (IFN-γ)” value in experiment [4] is listed as “decreased”. The same molecule yielded a minimal inhibitory concentration (MIC) in experiment [5] of 0.06 to 0.5 µg/mL (≈ 0.159 to 1.32 µM).

By IC50 is commonly meant the midpoint of a concentration-inhibition curve. Low values mean greater potency in that assay, high ones weaker potency in that assay. The MIC is the smallest concentration in the dilution series that meets the test's criterion for growth inhibition.
